Experimental data: publication PMC12015759, “A humanized Gs-coupled DREADD for circuit and behavior modulation” (Frontiers in Cellular Neuroscience, 2025)

Assays:
[1] = target: T1, rM3Ds (Rattus norvegicus, UniProt P08483, A177S/A238G/A489L/DEL261-437/DEL441-478/E258S/I253V/I483M/INS256[…]/K178L/K182A/K255R/K484R/K486H/L173F/L482A/M480V/R171S/R176Q/R179M/S481M/T174R/T181R/T257A/Y148C); experiment: cAMP assay (CRE-luciferase reporter) in HEK293T cells expressing rM3Ds; format: cell-based; details: 100 μM of ACh, rM3Ds-transfected cells
T1 construct: host or cells: HEK293T
T1 sequence (P08483 with tags, fused parts or gaps Y148C/R171S/L173F/T174R/R176Q/A177S/K178L/R179M/T181R/K182A/A238G/I253V/K255R/INS256[…]/T257A/E258S/DEL261-437/DEL441-478/M480V/S481M/L482A/I483M/K484R/K486H/A489L): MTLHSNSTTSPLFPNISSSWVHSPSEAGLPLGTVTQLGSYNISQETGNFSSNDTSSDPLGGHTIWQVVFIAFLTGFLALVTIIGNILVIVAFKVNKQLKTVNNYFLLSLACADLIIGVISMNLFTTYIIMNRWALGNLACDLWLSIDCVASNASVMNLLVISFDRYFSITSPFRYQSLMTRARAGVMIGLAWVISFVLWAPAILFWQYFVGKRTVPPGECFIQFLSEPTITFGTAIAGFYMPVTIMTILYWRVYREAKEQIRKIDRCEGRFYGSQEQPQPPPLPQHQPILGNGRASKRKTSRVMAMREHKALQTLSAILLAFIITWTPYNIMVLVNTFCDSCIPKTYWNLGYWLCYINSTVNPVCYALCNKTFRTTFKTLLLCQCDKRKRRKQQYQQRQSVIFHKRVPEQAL

[2] = tested on: dopaminergic neurons in the SNc; experiment: 6-OHDA lesion, TH staining of striatum and SNc; format: in vivo, mouse; details: bilateral injection into the striatum, 800 nL of 5 mg/mL per side, 1 week
Description: A PD mouse model was generated using 6-OHDA. Desipramine (Sigma) was administrated (25 mg/kg) via intraperitoneal injection 30 min before a 6-OHDA injection. The stereotactic injection procedure was identical to the AAV injection described above. A volume of 800 nL 6-OHDA (5 mg/mL) was injected into each side of striatum (from bregma: AP 0.5 mm, ML ±1.5 mm, DV –3.2 mm) at a rate of 100 nL/min. One week after 6-OHDA lesions were generated, AAV injections were administered, and behavioral tests were conducted 3 weeks after AAV injections.
Animals were deeply anesthetized and perfused with saline and 4% paraformaldehyde perfusion through left ventricle. The mouse brains were extracted, fixed overnight, and then dehydrated with 30% sucrose solution. After being embedded in OCT (Sakura), brain sections were prepared at 40 μm thickness by a cryostat (Leica, CM1950).
Brain slices were blocked and permeabilized with PBS containing 5% bovine serum albumin (BSA) and 0.3% Triton X-100 for 30 min. The slices were then incubated with anti-GFP (Abcam, ab13970) or anti-TH (Abcam, ab76442), diluted to 1:500 in PBS containing 5% BSA at 4°C overnight. The sections were then incubated with diluted Alexa Fluor 488 goat anti-chicken IgG antibody (Thermo Fisher, A-11039) or Alexa Fluor 594 donkey anti-mouse IgG antibody (Thermo Fisher, A32744) at room temperature for 1 h. […]

Row | SMILES | luciferase activity [1] | dopaminergic neurons in the SNc and dopaminergic innervation in the striatum [2]
1 | CC(=O)OCC[N+](C)(C)C [ACh, acetylcholine chloride] | modest elevation in luciferase activity | –
2 | NCCc1cc(O)c(O)cc1O [6-OHDA, 6-hydroxydopamine] | – | almost complete loss
